Test results taken from publication PMC12892976, “Alkylation-based optimization of antifungal FPPS inhibitors yields a potent, broad-spectrum lipophilic zoledronate derivative” (mBio, 2025).
≈ marks a conversion by molar mass, not a printed value. Where two headings read alike, the source gives them in different places.

Experiments:
Saccharomyces cerevisiae [1] = experiment: MIC/MFC broth microdilution (CLSI); type: cell-based; settings: Saccharomyces cerevisiae S288c
Description: (§1) Antifungal susceptibility was determined by broth microdilution according to the CLSI guidelines described in M27-Ed4 ([16]). […] MFC was determined by back-plating drug-treated cultures from MIC broths onto SDA plates. The MFC was defined as the lowest concentration from which no colonies could be cultured.

Candida albicans [2] = experiment: MIC/MFC broth microdilution (CLSI); type: cell-based; settings: Candida albicans SC5314
Description: as §1

[3] = test system: Cryptococcus deuterogattii; experiment: checkerboard drug interaction (FICI, MICc);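 for all read-outs here: simplified diagonal checkerboard screen pairing antifungal drugs with FPPS inhibitors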; type: cell-based; settings: C. deuterogattii; for INH FD (MIC-MICc fold decrease): fold decrease of inhibitor MIC
Description: (§2) Drug interactions between antifungals and FPPS inhibitors were investigated using a simplified checkerboard diagonal screening method ([45]). […] FICIs were determined according to the Loewe additivity model ([17]).

Cryptococcus neoformans [4] = experiment: checkerboard drug interaction (FICI, MICc);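 for all read-outs here: antifungal plus FPPS inhibitor pairs tested against Cryptococcus neoformans by simplified diagonal checkerboard screening, FICI computed under the Loewe additivity model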; type: cell-based; settings: C. neoformans; for INH FD (MIC-MICc fold decrease): fold decrease of inhibitor MIC
Description: as §2

Saccharomyces cerevisiae [5] = experiment: checkerboard drug interaction (FICI, MICc); type: cell-based; design: INH MICc / INH MICc (ITR:INH) / INH MICc (KET:INH) / INH MICc (FLC:INH): unit not given beside the values;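 note: simplified diagonal checkerboard screen pairing antifungals with FPPS inhibitors, FICI calculated under the Loewe additivity model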
Candida glabrata [6] = experiment: checkerboard drug interaction (FICI, MICc);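 for all read-outs here: simplified diagonal checkerboard screen pairing antifungals with FPPS inhibitors, FICI calculated under the Loewe additivity model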; type: cell-based; settings: C. glabrata; for INH FD (MIC-MICc fold decrease): fold decrease of inhibitor MIC
Description: as §2

Candida albicans [7] = experiment: checkerboard drug interaction (FICI, MICc);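 for all read-outs here: antifungal plus FPPS inhibitor combinations on Candida albicans tested by a simplified diagonal checkerboard screen, with FICI calculated under the Loewe additivity model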; type: cell-based; settings: C. albicans; for INH FD (MIC-MICc fold decrease): fold decrease of inhibitor MIC
Description: as §2

Aspergillus flavus [8] = experiment: checkerboard drug interaction (FICI, MICc);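 note: simplified diagonal checkerboard screen pairing azole antifungals with FPPS inhibitors, FICI calculated under the Loewe additivity model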; type: cell-based; design: INH MICc (KET:INH) / INH MICc (FLC:INH): unit not given beside the values; settings: A. flavus
Aspergillus fumigatus [9] = experiment: checkerboard drug interaction (FICI, MICc); type: cell-based;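 note: simplified diagonal checkerboard screen pairing antifungals with FPPS inhibitors against Aspergillus fumigatus, with FICI calculated under the Loewe additivity model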
Description: as §2

Trichophyton rubrum [10] = experiment: checkerboard drug interaction (FICI, MICc);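 note: simplified diagonal checkerboard screen pairing azole antifungals with FPPS inhibitors, FICI calculated under the Loewe additivity model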; type: cell-based; settings: T. rubrum
Description: as §2

HEK-293T cells = experiment: MTT reduction cytotoxicity assay; type: cell-based; settings: Homo sapiens, HEK-293T, 72 h, MTT, 72 h
eight fungal species [11] = experiment: MIC/MFC summary across the eight fungal species of Table 1; type: cell-based
Description: The antifungal activity of these compounds was evaluated according to CLSI guidelines ([16]).

eight fungal species [12] = experiment: checkerboard interaction with azoles, summary across the eight species; type: cell-based
Excerpt: Synergy between lipophilic FPPS inhibitors and azole antifungals was investigated by determining the fractional inhibitory concentration index (FICI) (Fig. 2; Table S1 Fig. S1) ([17]). […]. Derivatives PLA9 and 11, and PDA9, 11, and 12 antagonized azoles in C. albicans, C. neoformans, and C. deuterogattii, yet were largely synergistic in C. glabrata and S. cerevisiae. […].

[13] = test system: Cryptococcus deuterogattii; experiment: MIC/MFC broth microdilution (CLSI); settings: Cryptococcus deuterogattii;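 note: broth microdilution per CLSI M27-Ed4. MFC is the lowest concentration yielding no colonies when MIC broths are subcultured onto SDA plates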
Description: as §1

Cryptococcus neoformans [14] = experiment: MIC/MFC broth microdilution (CLSI); settings: Cryptococcus neoformans;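 note: susceptibility testing followed the CLSI M27-Ed4 broth microdilution document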
Description: as §1

Candida glabrata [15] = experiment: MIC/MFC broth microdilution (CLSI); settings: Nakaseomyces glabratus, CBS138;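 note: broth microdilution following CLSI M27-Ed4, MFC taken as the lowest drug level yielding no growth once MIC wells were subcultured on SDA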
Description: as §1

Aspergillus flavus [16] = experiment: MIC/MFC broth microdilution (CLSI); settings: ATCC204304
Description: as §1

Aspergillus fumigatus [17] = experiment: MIC/MFC broth microdilution (CLSI); settings: ATCC204305
Description: as §1

Trichophyton rubrum [18] = experiment: MIC/MFC broth microdilution (CLSI); settings: Trichophyton rubrum
Description: as §1

[19] = FLC:INH combination, MIC of the inhibitor in combination with FLC
[20] = FLC:INH combination, fold decrease of FLC MIC
[21] = ITR:INH combination, MIC of the inhibitor in combination with ITR
[22] = ITR:INH combination, fold decrease of ITR MIC
[23] = KET:INH combination, MIC of the inhibitor in combination with KET
[24] = KET:INH combination, fold decrease of KET MIC
[25] = Fractional Inhibitory Concentration Index, fluconazole + inhibitor
[26] = Fractional Inhibitory Concentration Index, itraconazole + inhibitor
[27] = Fractional Inhibitory Concentration Index, ketoconazole + inhibitor
[28] = MIC of the inhibitor in combination with fluconazole
[29] = MIC of the inhibitor in combination with itraconazole
[30] = MIC of the inhibitor in combination with ketoconazole
[31] = MIC-MICc fold decrease of fluconazole, negative = increase
[32] = MIC-MICc fold decrease of itraconazole, negative = increase
[33] = MIC-MICc fold decrease of ketoconazole, negative = increase
[34] = MIC-MICc fold decrease of the inhibitor, with fluconazole
[35] = MIC-MICc fold decrease of the inhibitor, with itraconazole
[36] = MIC-MICc fold decrease of the inhibitor, with ketoconazole

## CCCCCCCCCCCN1CCC[C@H]1C(=O)N[C@@H](CC(=O)OC)C(=O)OC [dmPLA11]
Saccharomyces cerevisiae [1]
  MFC: 8 µg/mL (≈ 19.4 µM)
  MIC: 8 µg/mL (≈ 19.4 µM)
Candida albicans [2]
  MFC: 32 µg/mL (≈ 77.6 µM)
  MIC: 32 µg/mL (≈ 77.6 µM)
[3]; FLC:INH combination
  FICI: 1.5
  INH FD (MIC-MICc fold decrease): 1
[3]; [19]
  INH MICc: 32
[3]; [20]
  FLC FD (MIC-MICc fold decrease): 2
[3]; ITR:INH combination
  FICI: 2
  INH FD (MIC-MICc fold decrease): 1
[3]; [21]
  INH MICc: 32
[3]; [22]
  ITR FD (MIC-MICc fold decrease): 1
[3]; KET:INH combination
  FICI: 1.13
  INH FD (MIC-MICc fold decrease): 1
[3]; [23]
  INH MICc: 32
[3]; [24]
  KET FD (MIC-MICc fold decrease): 8
Cryptococcus neoformans [4]; FLC:INH combination
  FICI: 1.5
  INH FD (MIC-MICc fold decrease): 2
Cryptococcus neoformans [4]; [19]
  INH MICc: 32
Cryptococcus neoformans [4]; [20]
  FLC FD (MIC-MICc fold decrease): 1
Cryptococcus neoformans [4]; ITR:INH combination
  FICI: 1.5
  INH FD (MIC-MICc fold decrease): 2
Cryptococcus neoformans [4]; [21]
  INH MICc: 32
Cryptococcus neoformans [4]; [22]
  ITR FD (MIC-MICc fold decrease): 1
Cryptococcus neoformans [4]; KET:INH combination
  FICI: 1.5
  INH FD (MIC-MICc fold decrease): 2
Cryptococcus neoformans [4]; [23]
  INH MICc: 32
Cryptococcus neoformans [4]; [24]
  KET FD (MIC-MICc fold decrease): 1
Saccharomyces cerevisiae [5]; [25]
  FICI (FLC:INH): 1
Saccharomyces cerevisiae [5]; [26]
  FICI (ITR:INH): 2.25
Saccharomyces cerevisiae [5]; [27]
  FICI (KET:INH): 1
Saccharomyces cerevisiae [5]; [28]
  INH MICc (FLC:INH): 4
Saccharomyces cerevisiae [5]; [29]
  INH MICc (ITR:INH): 2
Saccharomyces cerevisiae [5]; [30]
  INH MICc (KET:INH): 4
Saccharomyces cerevisiae [5]; [31]
  FLC FD (FLC:INH): 2
Saccharomyces cerevisiae [5]; [32]
  ITR FD (ITR:INH): -2
Saccharomyces cerevisiae [5]; [33]
  KET FD (KET:INH): 2
Saccharomyces cerevisiae [5]; [34]
  INH FD (FLC:INH): 2
Saccharomyces cerevisiae [5]; [35]
  INH FD (ITR:INH): 4
Saccharomyces cerevisiae [5]; [36]
  INH FD (KET:INH): 2
Candida glabrata [6]; FLC:INH combination
  FICI: 3
  INH FD (MIC-MICc fold decrease): 1
Candida glabrata [6]; [19]
  INH MICc: 16
Candida glabrata [6]; [20]
  FLC FD (MIC-MICc fold decrease): 1
Candida glabrata [6]; ITR:INH combination
  FICI: 1
  INH FD (MIC-MICc fold decrease): 4
Candida glabrata [6]; [21]
  INH MICc: 4
Candida glabrata [6]; [22]
  ITR FD (MIC-MICc fold decrease): 2
Candida glabrata [6]; KET:INH combination
  FICI: 1
  INH FD (MIC-MICc fold decrease): 4
Candida glabrata [6]; [23]
  INH MICc: 4
Candida glabrata [6]; [24]
  KET FD (MIC-MICc fold decrease): 2
Candida albicans [7]; FLC:INH combination
  FICI: 1.25
  INH FD (MIC-MICc fold decrease): 4
Candida albicans [7]; [19]
  INH MICc: 8
Candida albicans [7]; [20]
  FLC FD (MIC-MICc fold decrease): 1
Candida albicans [7]; ITR:INH combination
  FICI: 1.25
  INH FD (MIC-MICc fold decrease): 4
Candida albicans [7]; [21]
  INH MICc: 8
Candida albicans [7]; [22]
  ITR FD (MIC-MICc fold decrease): 1
Candida albicans [7]; KET:INH combination
  FICI: 1.25
  INH FD (MIC-MICc fold decrease): 4
Candida albicans [7]; [23]
  INH MICc: 8
Candida albicans [7]; [24]
  KET FD (MIC-MICc fold decrease): 1
Aspergillus flavus [8]; [25]
  FICI (FLC:INH): 2
Aspergillus flavus [8]; [26]
  FICI (ITR:INH): 1.25
Aspergillus flavus [8]; [27]
  FICI (KET:INH): 0.75
Aspergillus flavus [8]; [28]
  INH MICc (FLC:INH): 256
Aspergillus flavus [8]; [29]
  INH MICc (ITR:INH): 64
Aspergillus flavus [8]; [30]
  INH MICc (KET:INH): 64
Aspergillus flavus [8]; [31]
  FLC FD (FLC:INH): 1
Aspergillus flavus [8]; [32]
  ITR FD (ITR:INH): 1
Aspergillus flavus [8]; [33]
  KET FD (KET:INH): 2
Aspergillus flavus [8]; [34]
  INH FD (FLC:INH): 1
Aspergillus flavus [8]; [35]
  INH FD (ITR:INH): 4
Aspergillus flavus [8]; [36]
  INH FD (KET:INH): 4
Aspergillus fumigatus [9]; [25]
  FICI (FLC:INH): 1.25
Aspergillus fumigatus [9]; [26]
  FICI (ITR:INH): 0.53
Aspergillus fumigatus [9]; [27]
  FICI (KET:INH): 1.5
Aspergillus fumigatus [9]; [28]
  INH MICc (FLC:INH): 64
Aspergillus fumigatus [9]; [29]
  INH MICc (ITR:INH): 2
Aspergillus fumigatus [9]; [30]
  INH MICc (KET:INH): 64
Aspergillus fumigatus [9]; [31]
  FLC FD (FLC:INH): 4
Aspergillus fumigatus [9]; [32]
  ITR FD (ITR:INH): 2
Aspergillus fumigatus [9]; [33]
  KET FD (KET:INH): 2
Aspergillus fumigatus [9]; [34]
  INH FD (FLC:INH): 1
Aspergillus fumigatus [9]; [35]
  INH FD (ITR:INH): 32
Aspergillus fumigatus [9]; [36]
  INH FD (KET:INH): 1
Trichophyton rubrum [10]; [25]
  FICI (FLC:INH): 2.25
Trichophyton rubrum [10]; [26]
  FICI (ITR:INH): 2.13
Trichophyton rubrum [10]; [27]
  FICI (KET:INH): 2.25
Trichophyton rubrum [10]; [28]
  INH MICc (FLC:INH): 32
Trichophyton rubrum [10]; [29]
  INH MICc (ITR:INH): 32
Trichophyton rubrum [10]; [30]
  INH MICc (KET:INH): 32
Trichophyton rubrum [10]; [31]
  FLC FD (FLC:INH): 4
Trichophyton rubrum [10]; [32]
  ITR FD (ITR:INH): 8
Trichophyton rubrum [10]; [33]
  KET FD (KET:INH): 4
Trichophyton rubrum [10]; [34]
  INH FD (FLC:INH): -2
Trichophyton rubrum [10]; [35]
  INH FD (ITR:INH): -2
Trichophyton rubrum [10]; [36]
  INH FD (KET:INH): -2
HEK-293T cells; HEK-293T cells, read-out: IC50
  IC50: 9.09 µg/mL (≈ 22 µM)
HEK-293T cells; read-out: HEK IC50
  IC50: 9.09 µg/mL (≈ 22 µM)
Eight fungal species [11]; across eight species, read-out: Geometric mean MFC
  MFC: 83 µg/mL (≈ 201 µM)
Eight fungal species [11]; geometric mean across eight species, read-out: GM fungal MIC
  MIC: 29.3 µg/mL (≈ 71 µM)
Eight fungal species [11]; read-out: Geometric mean MIC
  MIC: 29.3 µg/mL (≈ 71 µM)
Eight fungal species [12]; any of the azole drugs in any species tested
  antagonism with azole drugs: no antagonism
Eight fungal species [12]; geometric mean MIC in combination with azoles
  GM fungal MICc: 18
[13]
  MFC: 128 µg/mL (≈ 310 µM)
  MIC: 8 µg/mL (≈ 19.4 µM)
Cryptococcus neoformans [14]
  MFC: 64 µg/mL (≈ 155 µM)
  MIC: 16 µg/mL (≈ 38.8 µM)
Candida glabrata [15]
  MFC: 64 µg/mL (≈ 155 µM)
  MIC: 32 µg/mL (≈ 77.6 µM)
Aspergillus flavus [16]
  MFC: > 128 µg/mL
  MIC: > 128 µg/mL
Aspergillus fumigatus [17]
  MFC: > 128 µg/mL
  MIC: 128 µg/mL (≈ 310 µM)
Trichophyton rubrum [18]
  MFC: > 128 µg/mL
  MIC: 16 µg/mL (≈ 38.8 µM)
